Measured values from the Deep4Chem optical property database.
Values joined by “and” are separate entries in the source; they are usually repeats but may differ in a detail not shown here. Equal entries are not always repeated. Values belong to the molecule of their own block, whether it stands above or below them.

Assay: solvent given as SMILES
[1] = in O=P(c1ccccc1)(c1ccccc1)c1ccccc1Oc1ccccc1P(=O)(c1ccccc1)c1ccccc1

Compound: c1ccc2c(c1)c1ccccc1n2-c1cc(-c2nc3ccccn3n2)cc(-n2c3ccccc3c3ccccc32)c1
emission maximum (in Cc1ccccc1): 373 nm

Compound: CC1=CC(C)=[N+]2C1=C(c1c3ccccc3c(-c3ccccc3)c3ccccc13)c1c(C)cc(C)n1[B-]2(F)F
emission maximum (in CC#N): 508 nm
emission maximum (in CCCCCC): 514 nm
emission maximum (in CCO): 512 nm
emission maximum (in CN(C)C=O): 515 nm
emission maximum (in Cc1ccccc1): 519 nm
emission maximum (in ClCCl): 515 nm

emission maximum (in CC#N): 482 nm
emission maximum (in CCOC(C)=O): 438 nm
emission maximum (in CN(C)C=O): 490 nm
emission maximum (in CS(C)=O): 496 nm
emission maximum (in c1ccccc1): 412 nm
Compound: CCOC(=O)CN(CC(=O)OCC)c1ccc(-c2cc(-c3ccncc3)nc(-c3ccncc3)c2)cc1

emission maximum (in O): 502 nm
Compound: CC[n+]1c(-c2ccccc2)c2cc(-n3cccc3)ccc2c2ccc(-n3cccc3)cc21

emission maximum (in C1CCCCC1): 496 nm
emission maximum (in CC#N): 534 nm
emission maximum (in ClC(Cl)Cl): 531 nm
Compound: c1cc2ccc1CCCc1cc3c(cc1CCCc1ccc(c4nsnc14)CCC3)CCC2

emission maximum (in ClCCl): 442 nm
Compound: c1ccc(-c2cc3cc4cccc5c(-c6ccccc6)cc6cc7cccc2c7c3c6c45)cc1

emission maximum (in CO): 658 nm
emission maximum (in CS(C)=O): 657 nm
emission maximum (in O): 658 nm
Compound: CCCN1/C(=C/C=C(/C=C/C2=[N+](CCC)c3ccccc3C2(C)C)c2cc[n+](C)cc2)C(C)(C)c2ccccc21

emission maximum (in ClCCl): 433 nm
Compound: C(S/C=C/c1ccc(-c2ccc(/C=C/SC=C3CCCCC3)cc2)cc1)=C1CCCCC1

Compound: Cc1ccc2c(c1)C1(c3ccccc3Oc3ccccc31)c1cc(C)ccc1N2c1ccc(-c2ncccn2)cc1
emission maximum (in Cc1ccccc1): 454 nm
emission maximum (in O=P(c1ccccc1)(c1ccccc1)c1ccc2oc3ccc(P(=O)(c4ccccc4)c4ccccc4)cc3c2c1): 458 nm

emission maximum (in CC#N): 452 nm
emission maximum (in CCOC(C)=O): 419 nm
emission maximum (in CN(C)C=O): 458 nm
emission maximum (in CS(C)=O): 466 nm
emission maximum (in c1ccccc1): 400 nm
Compound: CCOC(=O)CN(CC(=O)OCC)c1ccc(-c2cc(-c3ccccn3)nc(-c3ccccn3)c2)cc1

emission maximum (in ClC(Cl)Cl): 387 nm
Compound: CCOC(=O)C1(O)c2cc3ccc4cccc5ccc(c2C(=O)N1C(C)(C)C)c3c45 (configuration not stated)

emission maximum (in CCO): 632 nm
emission maximum (in ClCCl): 612 nm
emission maximum (in O): 652 nm
Compound: N#CC(C#N)=Cc1ccc(-c2ccc(O)c(-c3nc4ccccc4s3)c2)o1

emission maximum (in ClC(Cl)Cl): 598 nm and 597 nm
Compound: COc1ccccc1C1=[N+]2C(=C(c3ccc(I)cc3)c3ccc(-c4ccccc4OC)n3[B-]2(F)F)C=C1

emission maximum (in ClCCl): 631 nm
Compound: O=[N+]([O-])c1ccc2c(ccc3[n+]2[B-](F)(F)n2c-3cc3c4ccccc4c4ccccc4c32)c1

emission maximum (in CN(C)C=O): 665 nm
emission maximum (in ClCCl): 670 nm
Compound: C1=Cc2nc1c(-c1cccs1)c1ccc([nH]1)c(-c1cccs1)c1nc(c(-c3cccs3)c3ccc([nH]3)c2-c2cccs2)C=C1

Compound: COc1ccc(-c2nc(-c3ccc(OC)cc3C)nc(-c3ccc(N4c5ccccc5C5(c6ccccc6-c6ccccc65)c5ccccc54)cc3C)n2)c(C)c1
emission maximum (in Cc1ccccc1): 467 nm
emission maximum [1]: 469 nm

Compound: O=c1oc2ccccc2c(O)c1C(CC(O)c1ccc(-c2ccc(Br)cc2)cc1)c1ccccc1 (configuration not stated)
emission maximum (in CC#N): 403 nm
emission maximum (in CCO): 392 nm
emission maximum (in CO): 394 nm
emission maximum (in O): 397 nm

emission maximum (in C1CCOC1): 433 nm
Compound: CCCCCOc1cc2oc(=O)c3c4occc4c4ccc5cccc6c(c1)c2c3c4c56

Compound: N#Cc1ccc2c(c1)CCc1nc(-c3ccc([N+](=O)[O-])cc3)c3c(c1-2)CCc1cc(C#N)ccc1-3
emission maximum (in C1CCOC1): 469 nm
emission maximum (in CC#N): 525 nm
emission maximum (in CCCCCC): 413 nm
emission maximum (in CCOC(C)=O): 452 nm
emission maximum (in CO): 475 nm
emission maximum (in CS(C)=O): 510 nm
emission maximum (in Cc1ccccc1): 443 nm
emission maximum (in ClCCl): 475 nm

Compound: CCCCCCc1ccc(-n2c3[n+](c4c5ccccc5c5ccccc5c42)[B-](C)(C)c2ccc4ccccc4c2-3)cc1
emission maximum (in C1CCOC1): 444 nm
emission maximum (in CC#N): 443 nm
emission maximum (in Cc1ccccc1): 444 nm
emission maximum (in ClCCl): 435 nm

emission maximum (in ClC(Cl)Cl): 405 nm
Compound: CCc1ccc(-n2c3ccccc3c3cc4c(cc32)c2ccccc2n4-c2ccc(CC)s2)s1

emission maximum (in ClC(Cl)Cl): 415 nm
Compound: CCCCCCn1c2ccccc2c2cc3c4cc5c6ccccc6n(CCCCCC)c5cc4c4cc5c(C)cc(=O)oc5cc4c3cc21

emission maximum (in ClC(Cl)Cl): 388 nm
Compound: CC(C)(C)c1ccc(-c2ccc(-c3c4c(nc5ccccc35)-c3cc5c(cc3CC4)-c3nc4ccccc4c(-c4ccc(-c6ccc(C(C)(C)C)cc6)cc4)c3CC5)cc2)cc1

emission maximum (in ClCCl): 476 nm
Compound: c1ccc2c(c1)ccc1ccc3ccc4ccc5ccccc5c4c3c12

emission maximum (in ClCCl): 490 nm
Compound: CN(C)c1cccc(/C=C/c2ncc(-c3ccc(OCc4ccccc4)c(OCc4ccccc4)c3)o2)c1

emission maximum (in ClCCl): 552 nm
Compound: CCCCN(CCCC)c1ccc(C#Cc2cc(C#Cc3ccc(N(CCCC)CCCC)cc3)c(C#Cc3ccc([N+](=O)[O-])cc3)cc2C#Cc2ccc([N+](=O)[O-])cc2)cc1

emission maximum (in C1CCOC1): 612 nm
Compound: CC1=[N+]2C(=C(c3ccc(C(=C(c4ccccc4)c4ccccc4)c4ccccc4)cc3)c3ccc(/C=C/c4ccc(C(=C(c5ccccc5)c5ccccc5)c5ccccc5)cc4)n3[B-]2(F)F)C=C1

emission maximum (in C1CCCCC1): 540 nm
emission maximum (in CC#N): 546 nm
emission maximum (in CCO): 547 nm
emission maximum (in CCOC(C)=O): 543 nm
emission maximum (in CO): 546.5 nm
emission maximum (in OCC(F)(F)F): 538.5 nm
Compound: Cc1ccc(C2=C3C=C(I)C=[N+]3[B-](F)(F)n3cccc32)cc1

emission maximum (in ClC(Cl)Cl): 409 nm
Compound: CCCCn1c2ccccc2c2ccc3c4cc(-c5ccc(OC)cc5)ccc4n(CCCC)c3c21

emission maximum (in C1CCOC1): 563 nm
Compound: COc1cc2c(cc1-c1ccc(N(c3ccccc3)c3ccccc3)cc1)Cc1c3c(c4c(c1-2)-c1cc(OC)c(-c2ccc(N(c5ccccc5)c5ccccc5)cc2)cc1C4)C(=O)N(CCC(C)C)C3=O

emission maximum (in ClCCl): 541 nm
emission maximum (in c1ccccc1): 493 nm
Compound: CCCCN(CCCC)c1ccc(C#Cc2cc(C#Cc3ccc(N(CCCC)CCCC)cc3)c(C#Cc3ccc(C(F)(F)F)cc3)cc2C#Cc2ccc(C(F)(F)F)cc2)cc1

emission maximum (in CCO): 488 nm
Compound: CN1c2cc3nc4cc(F)c(F)cc4nc3cc2N(C)C1(C)C

emission maximum (in C1CCOC1): 480 nm
emission maximum (in C1COCCO1): 480 nm
emission maximum (in CC#N): 488 nm
emission maximum (in CCCCCCC): 455 nm
emission maximum (in CCO): 490 nm
emission maximum (in O): 495 nm
emission maximum (in OCC(O)CO): 492 nm
emission maximum (in OCCO): 495 nm
Compound: CCOC(=O)C1CC(c2c(C#N)c(C)nn2-c2ccccc2)=CN1c1ccc(Br)cc1 (configuration not stated)

emission maximum (in O): 426 nm
Compound: O=S(=O)([O-])c1cccc2c(O)cccc12

emission maximum (in C1CCCCC1): 426 nm
emission maximum (in CC#N): 558 nm
emission maximum (in CC(C)O): 493 nm
emission maximum (in CO): 512 nm
emission maximum (in CS(C)=O): 568 nm
emission maximum (in ClC(Cl)Cl): 509 nm
emission maximum (in c1ccccc1): 483 nm and 486 nm
Compound: CN(C)c1ccc2nc(-c3ccc(C(=O)O)cc3)sc2c1

emission maximum (in C1CCOC1): 396 nm
Compound: c1ccc(-n2c(-c3ccccc3-n3c4ccccc4c4ccccc43)nc3ccccc32)cc1

Compound: c1ccc(-c2nnc(-c3ccc(N4c5ccccc5N(c5ccccc5)c5ccccc54)cc3)n2-c2ccccc2)cc1
emission maximum (in Cc1ccccc1): 528 nm
emission maximum (in c1cc(-n2c3ccccc3c3ccccc32)cc(-n2c3ccccc3c3ccccc32)c1): 520 nm

Compound: Cc1cc(N2c3ccccc3C(C)(C)c3ccccc32)ccc1-c1cc(-c2ccc(N3c4ccccc4C(C)(C)c4ccccc43)cc2C)ncn1
emission maximum (in Cc1ccccc1): 477 nm
emission maximum [1]: 477 nm

emission maximum (in CC#N): 432 nm
Compound: N#Cc1cccc(-c2pc3ccccc3s2)c1 (configuration not stated)

Compound: CCC1=C(C)C2=Cc3c(I)c(I)cn3[B-](F)(F)[N+]2=C1C
emission maximum (in C1CCCCC1): 537 nm
emission maximum (in CC(C)=O): 544 nm
emission maximum (in CCO): 541.5 nm
emission maximum (in CCOC(C)=O): 539.5 nm
emission maximum (in CO): 541.5 nm
emission maximum (in OCC(F)(F)F): 538 nm

Compound: O=Cc1cc(N2CCCCC2)c2ccc3c(N4CCCCC4)cc(N4CCCCC4)c4ccc1c2c43
emission maximum (in C1COCCO1): 557 nm
emission maximum (in CC#N): 596 nm
emission maximum (in CC(C)=O): 581 nm
emission maximum (in CCCCCC): 520 nm
emission maximum (in CCO): 635 nm
emission maximum (in CCOC(C)=O): 562 nm
emission maximum (in CO): 643 nm
emission maximum (in CS(C)=O): 601 nm
emission maximum (in Cc1ccccc1): 554 nm
emission maximum (in ClCCl): 597 nm

emission maximum (in ClCCl): 425 nm
Compound: CC(C)(C)NC(=O)c1ccc2ccc3cccc4c3c2c1c1c2ccccc2c2ccccc2c41

emission maximum (in CC#N): 380 nm
Compound: COc1cc(C#Cc2ccccc2)c(C#Cc2ccccc2)cc1OC

emission maximum (in C1CCOC1): 429 nm
Compound: Cc1cc(C)c([B-]2(c3c(C)cc(C)cc3C)[O+]=P(c3ccccc3)(c3ccccc3)c3ccsc3-c3sccc32)c(C)c1

emission maximum (in ClCCl): 583 nm
Compound: Cc1ccccc1N1c2c(sc3ccccc23)Sc2sc3ccccc3c21

Compound: CC(C)(C)c1ccc(C2=C(c3ccc(C(C)(C)C)cc3)C(c3ccc(C(C)(C)C)cc3)=[N+]3C2=C(c2ccccc2)c2c(-c4ccc(C(C)(C)C)cc4)c(-c4ccc(C(C)(C)C)cc4)c(-c4ccc(C(C)(C)C)cc4)n2[B-]3(F)F)cc1
emission maximum (in C1CCCCC1): 634 nm
emission maximum (in C1CCOC1): 637 nm
emission maximum (in CC#N): 629 nm
emission maximum (in Cc1ccccc1): 639 nm
emission maximum (in ClCCl): 636 nm

Compound: CC1(C)c2ccccc2-n2c(-c3ccc(N4c5ccccc5Oc5ccccc54)cc3)nc3cccc1c32
emission maximum (in Cc1ccccc1): 502 nm
emission maximum [1]: 485 nm

Compound: N#Cc1ccc(N(c2ccc(C#N)cc2)c2ccc3c4cccc5c(N(c6ccc(C#N)cc6)c6ccc(C#N)cc6)ccc(c6cccc2c63)c54)cc1
emission maximum (in C1CCCCC1): 494 nm
emission maximum (in C1CCOC1): 531 nm
emission maximum (in CC#N): 535 nm
emission maximum (in Cc1ccccc1): 513 nm
emission maximum (in ClCCl): 522 nm

emission maximum (in ClCCl): 420 nm
Compound: CCCCC(CC)Cn1c2cc(C#N)ccc2c2ccc(C#Cc3ccc4ccc5cccc6ccc3c4c56)cc21 (configuration not stated)

emission maximum (in CO): 653 nm
emission maximum (in ClC(Cl)Cl): 654 nm
Compound: CN1C(=CC2=C([O-])C(=CC3=[N+](C)c4ccc(Cl)cc4C3(C)C)C2=O)C(C)(C)c2cc(Cl)ccc21

emission maximum (in CC1CCCCC1): 501 nm
emission maximum (in CC#N): 503 nm
Compound: C(=C\c1c2ccccc2cc2ccccc12)/c1cccc2ccccc12
